The numbers were not newly measured in article PMC7604311, “Caprine Bactenecins as Promising Tools for Developing New Antimicrobial and Antitumor Drugs” (Frontiers in Cellular and Infection Microbiology, 2020), which cites them from elsewhere.

Common to all, as to parameters: key to Susceptibility category: R – resistant; I – intermediate; S – susceptible
Common to all, as to details: initial susceptibility testing of the clinical isolate; ref supplying institutions; cited from earlier work

Data set [1] concerns E. coli ESBL 521/17.
Data set [2] deals with K. pneumoniae ESBL 344/17.
Data set [3] concerns A. baumannii 7226/16. The source says:
page 1: Supplementary Material Supplementary Table 1. Susceptibility profiles of tested clinical isolates of bacteria. Gram-negative: Gram-positive: antibiotic E. coli A. baumannii P. aeruginosa K. pneumoniae antibiotic S. aureus ESBL 521/17 7226/16 MDR 522/17 ESBL 344/17 1399/17 AMP* R [≥32] R [≥32 ] R [≥32 ] R [≥32] AMP* R [≥32 ] AMC R [16] - - S [≤2] AMC - CTX R [≥64] - - S [≤1] AMX - CAZ R [≥64] - R [≥64] S [≤1] AZM R [≥4] FEP R [≥64] - R [≥64] S [≤1] VAN S [≤2] ATM R [≥64] - - S [≤1] DOX I [2] IPM S [≤1] R [≥16] I [8] S [≤1] CLI I [2] MEM S [≤0.25 ] R [≥32 ] R [≥16] S [≤0.25] MEM I [4] AM ...

Data set [4] concerns P. aeruginosa MDR 522/17.
The subject of data set [5] is S. aureus 1399/17.

A value given as a limit tells only on which side of the number the result lay.

For `C[C@@H](O)[C@H]1C(=O)N2C(C(=O)O)=C(SCCN=CN)C[C@H]12` [IPM, imipenem], the MIC of antibiotic in data set [1] is no more than 1 µg/mL; in data set [2], no more than 1 µg/mL; in data set [3], no less than 16 µg/mL; in data set [4], 8 µg/mL. For the same compound, the Susceptibility category result is listed as “S” in data set [1], “S” in data set [2], “R” in data set [3] and “I” in data set [4].
With `CN[C@H](CC(C)C)C(=O)N[C@H]1C(=O)N[C@@H](CC(N)=O)C(=O)N[C@H]2C(=O)N[C@H]3C(=O)N[C@H](C(=O)N[C@H](C(=O)O)c4cc(O)cc(O)c4-c4cc3ccc4O)[C@H](O)c3ccc(c(Cl)c3)Oc3cc2cc(c3O[C@@H]2O[C@H](CO)[C@@H](O)[C@H](O)[C@H]2O[C@H]2C[C@](C)(N)[C@H](O)[C@H](C)O2)Oc2ccc(cc2Cl)[C@H]1O` [VAN, vancomycin], in data set [5], the MIC of antibiotic was no more than 2 µg/mL and the Susceptibility category result was “S”.
For the compound `C[C@H]1[C@H](NC(=O)/C(=N\OC(C)(C)C(=O)O)c2csc(N)n2)C(=O)N1S(=O)(=O)O` [ATM, aztreonam], in data set [1], the MIC of antibiotic was no less than 64 µg/mL and the Susceptibility category entry is recorded as “R”. In data set [2], the MIC of antibiotic is no more than 1 µg/mL and the Susceptibility category entry is “S”.
In the case of `Cc1onc(-c2ccccc2)c1C(=O)N[C@@H]1C(=O)N2[C@@H]1SC(C)(C)[C@@H]2C(=O)O` [OX, oxacillin], in data set [5], the MIC of antibiotic was no less than 32 µg/mL and the Susceptibility category result is listed as “R”.
On to `CC[C@H]1OC(=O)[C@H](C)[C@@H](O[C@H]2C[C@@](C)(OC)[C@@H](O)[C@H](C)O2)[C@H](C)[C@@H](O[C@@H]2O[C@H](C)C[C@H](N(C)C)[C@H]2O)[C@](C)(O)C[C@@H](C)CN(C)[C@H](C)[C@@H](O)[C@]1(C)O` [AZM, azithromycin], for which, in data set [5], the MIC of antibiotic was no less than 4 µg/mL and the Susceptibility category entry is reported as “R”.
In the case of `C[C@@H]1O[C@@H]1P(=O)(O)O` [FOF, fosfomycin], in data set [1], the MIC of antibiotic was no more than 16 µg/mL and the Susceptibility category entry is “S”. Further, in data set [2], the MIC of antibiotic is no more than 16 µg/mL and the Susceptibility category entry was “S”.
With `O=C1CN(/N=C/c2ccc([N+](=O)[O-])o2)C(=O)N1` [NIT, nitrofurantoin], in data set [1], the MIC of antibiotic was 128 µg/mL and the Susceptibility category result is “R”.
Consider `CN(C)c1cc(NC(=O)CNC(C)(C)C)c(O)c2c1C[C@H]1C[C@H]3[C@H](N(C)C)C(O)=C(C(N)=O)C(=O)[C@@]3(O)C(O)=C1C2=O` [TGC, tigecycline], for which, in data set [3], the MIC of antibiotic was 4 µg/mL and the Susceptibility category result is “I”.
Regarding `CC1COc2c(N3CCN(C)CC3)c(F)cc3c(=O)c(C(=O)O)cn1c23` (stereo not shown) [OFL, ofloxacin], in data set [5], the MIC of antibiotic is no less than 32 µg/mL and the Susceptibility category result is “R”.
Take ampicillin-sulbactam [SAM]: in data set [3], the MIC of antibiotic was 16 µg/mL and the Susceptibility category result is “I”.
As to `CNC(C)C1CCC(N)C(OC2C(N)CC(N)C(OC3OCC(C)(O)C(NC)C3O)C2O)O1` (stereo not shown) [GEN, gentamicin], the MIC of antibiotic in data set [1] is no more than 1 µg/mL; in data set [5] it was no less than 32 µg/mL; in data set [2], no more than 1 µg/mL; in data set [3], no less than 16 µg/mL; in data set [4], no less than 16 µg/mL. The Susceptibility category entry is “S” in data set [1]; “R” in data set [5]; “S” in data set [2]; “R” in data set [3]; “R” in data set [4].
Regarding `C[C@H]1c2cccc(O)c2C(=O)C2=C(O)[C@]3(O)C(=O)C(C(N)=O)=C(O)[C@@H](N(C)C)[C@@H]3[C@@H](O)[C@@H]21` [DOX, doxycycline], in data set [5], the MIC of antibiotic was 2 µg/mL and the Susceptibility category entry is “I”.
Consider `CC[C@H]1OC(=O)[C@H](C)[C@@H](O[C@H]2C[C@@](C)(OC)[C@@H](O)[C@H](C)O2)[C@H](C)[C@@H](O[C@@H]2O[C@H](C)C[C@H](N(C)C)[C@H]2O)[C@](C)(O)C[C@@H](C)/C(=N\OCOCCOC)[C@H](C)[C@@H](O)[C@]1(C)O` [RXM, roxithromycin], for which, in data set [5], the MIC of antibiotic was 2 µg/mL and the Susceptibility category result is given as “I”.
Turning to `CC(C)(O/N=C(\C(=O)N[C@@H]1C(=O)N2C(C(=O)[O-])=C(C[n+]3ccccc3)CS[C@H]12)c1csc(N)n1)C(=O)O` [CAZ, ceftazidime], the values for the MIC of antibiotic in data set [1], in data set [2] and in data set [4] were no less than 64 µg/mL, no more than 1 µg/mL and no less than 64 µg/mL, respectively. The Susceptibility category entry in data set [1] is on record as “R”; in data set [2], “S”; in data set [4], “R”.
For the compound colistin [CST], the MIC of antibiotic in data set [1] is no more than 0.5 µg/mL; in data set [2], no more than 0.5 µg/mL; in data set [4], no less than 16 µg/mL. The Susceptibility category entry in data set [1] was “S”; in data set [2] it was “S”; in data set [4], “R”.
Turning to trimethoprim–sulfamethoxazole [SXT], the MIC of antibiotic in data set [1] is no less than 320 µg/mL; in data set [2], no more than 20 µg/mL; in data set [3], no less than 320 µg/mL. Besides, the Susceptibility category result in data set [1] is given as “R”; in data set [2], “S”; in data set [3], “R”.
Consider `NCC[C@H](O)C(=O)N[C@@H]1C[C@H](N)[C@@H](O[C@H]2O[C@H](CN)[C@@H](O)[C@H](O)[C@H]2O)[C@H](O)[C@H]1O[C@H]1O[C@H](CO)[C@@H](O)[C@H](N)[C@H]1O` [AMK, amikacin], for which the MIC of antibiotic was 16 µg/mL in data set [1]; no less than 64 µg/mL in data set [5]; no more than 2 µg/mL in data set [2]; 8 µg/mL in data set [3]; 4 µg/mL in data set [4]. Also, the Susceptibility category result was “I” in data set [1]; “R” in data set [5]; “S” in data set [2]; “I” in data set [3]; “I” in data set [4].
As for `C[C@@H](O)[C@H]1C(=O)N2C(C(=O)O)=C(S[C@@H]3CN[C@H](C(=O)N(C)C)C3)[C@H](C)[C@H]12` [MEM, meropenem], the MIC of antibiotic in data set [1] was no more than 0.25 µg/mL; in data set [5], 4 µg/mL; in data set [2], no more than 0.25 µg/mL; in data set [3], no less than 32 µg/mL; in data set [4] it was no less than 16 µg/mL. Also, the Susceptibility category entry in data set [1] is recorded as “S”; in data set [5], “I”; in data set [2], “S”; in data set [3], “R”; in data set [4], “R”.
Turning to `CO/N=C(\C(=O)N[C@@H]1C(=O)N2C(C(=O)[O-])=C(C[N+]3(C)CCCC3)CS[C@H]12)c1csc(N)n1` [FEP, cefepime], the MIC of antibiotic in data set [1] was no less than 64 µg/mL; in data set [2] it was no more than 1 µg/mL; in data set [4], no less than 64 µg/mL. In addition, the figures for the Susceptibility category entry in data set [1], in data set [2] and in data set [4] were “R”, “S” and “R”, respectively.
Turning to amoxicillin–clavulanic acid [AMC], the MIC of antibiotic in data set [1] is 16 µg/mL; in data set [2], no more than 2 µg/mL. The Susceptibility category entry is “R” in data set [1] and “S” in data set [2].
As for `CCC[C@@H]1C[C@@H](C(=O)N[C@@H]([C@H]2O[C@H](SC)[C@H](O)[C@@H](O)[C@H]2O)[C@H](C)Cl)N(C)C1` [CLI, clindamycin], in data set [5], the MIC of antibiotic was 2 µg/mL and the Susceptibility category result was “I”.
Take `CCN[C@@H]1C[C@H](N)[C@@H](O[C@H]2OC(CN)=CC[C@H]2N)[C@H](O)[C@H]1O[C@H]1OC[C@](C)(O)[C@H](NC)[C@H]1O` [NET, netilmicin]: the MIC of antibiotic in data set [1] is 8 µg/mL; in data set [2], no more than 1 µg/mL; in data set [4] it was no less than 32 µg/mL. The Susceptibility category entry in data set [1] was “R”; in data set [2], “S”; in data set [4] it was “R”.
On to `C[C@H]1COc2c(N3CCN(C)CC3)c(F)cc3c(=O)c(C(=O)O)cn1c23` [LVX, levofloxacin], for which, in data set [5], the MIC of antibiotic is no more than 1 µg/mL and the Susceptibility category result is reported as “S”.
Consider `CO/N=C(\C(=O)N[C@@H]1C(=O)N2C(C(=O)O)=C(COC(C)=O)CS[C@H]12)c1csc(N)n1` [CTX, cefotaxime], for which, in data set [1], the MIC of antibiotic is no less than 64 µg/mL and the Susceptibility category result was “R”. For the same compound, in data set [2], the MIC of antibiotic is no more than 1 µg/mL and the Susceptibility category entry was “S”.
